Reference: US20110177105A1, “Novel Selective Inhibitors of Ubiquitin Specific Protease 7, the Pharmaceutical Compositions Thereof and Their Therapeutic Applications” (priority 2010, published 2011)

Assays:
[1] = system: HCT116 colon cancer cells; experiment: HCT116 cell viability and proliferation assay (MTS); assay type: cell-based; conditions: Homo sapiens, HCT-116, HCT116, 72 hours, read-out: Cell viability (MTS): HCT116 Gl50 Day 3
Experimental: HCT116 colon cancer cells were obtained from ATCC (American Type Culture Collection), and maintained in Mc Coy's 5A medium containing 10% FBS, 3 mM glutamine and 1% penicillin/streptomycin. Cells were incubated at 37° C. in a humidified atmosphere containing 5% CO2.
Cell viability was assayed using the MTS technique in 96-well culture plates (CellTiter 96® Aqueous Non-Radioactive Cell Proliferation Assay, Promega) according to the manufacturer's instructions. MTS (3-(4,5-dimethyl-thiazol-2-yl)-5-(3-carboxy-methoxyphenyl)-2-(4-sulfophenyl)-2H-tetra-zolium) is a MTT-derived tetrazolium that is reduced in metabolically active cells into a soluble, cell-permeant formazan. The amount of formazan, detected by its absorbance at 492 nm is proportional to the number of living, metabolically active cells.
10^3 HCT116 cells were seeded per well. 24 hours later, the medium was changed and the cells treated in triplicate with the concentrations of each compound from 100 μM to 50 nM. The compounds were diluted in 100% DMSO, whose final concentration on cells was kept at 0.5%.
Cells were incubated with the compounds for 72 hours, and their viability then assayed by the addition of MTS for 2 hours. Absorbance at 492 nm was measured directly from the 96-well culture plates. GI50 (Growth Inhibition 50) concentrations for each compound were calculated using a sigmoidal variable slope fit (Prism 4.0, Graphpad Softwares). Values represent mean of three independent experiments.

UCH-L1 = molecular target: T1, UCH-L1 (Homo sapiens, UniProt P09936); experiment: UCH-L1 activity assay (Ub-AMC); assay type: biochemical; conditions: 300 nM Ub-AMC, 2.5 nM enzyme
T1 sequence (P09936 1-223): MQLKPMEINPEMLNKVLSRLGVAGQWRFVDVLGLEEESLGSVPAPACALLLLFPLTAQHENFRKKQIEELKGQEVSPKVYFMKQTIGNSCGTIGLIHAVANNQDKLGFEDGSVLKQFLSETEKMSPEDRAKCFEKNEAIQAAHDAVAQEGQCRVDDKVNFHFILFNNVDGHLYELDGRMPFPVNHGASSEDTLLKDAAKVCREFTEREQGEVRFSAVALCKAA
Experimental: UCH-L1 was diluted in USP buffer (50 mM Tris HCl; 0.5 mM EDTA; 5 mM DTT; 0.01% Triton X-100; Bovine Serum Albumin 0.05 mg·ml^−1 pH 7.6). Compounds stocks (100 mM) were stored at −20° C. in DMSO. Compounds were tested at different concentrations: from 200 μM to 91 nM.
(§1) Reactions were performed as duplicates in Black 384 well plates (small volume microplates; Greiner; 10 μl final reaction volume). The substrate concentration for UCH-L1 was 300 nM Ub-AMC (Boston Biochem). The concentration of the enzyme (UCH-L1) in specificity assays was 2.5 nM. The concentrations were determined in order to perform specificity assays under initial velocities at fixed substrate concentration. Compounds were pre-incubated with enzymes for 30 minutes at 25° C. Reactions were initiated by addition of substrate to the plates containing the enzymes (+/−compounds) diluted in assay buffer. Reactions were incubated for 60 minutes at 37° C. Reactions were stopped by adding acetic acid (100 mM final). Readings were performed on a Pherastar Fluorescent Reader (BMG). λ Emission 380 nm; λ Excitation=460 nm. Data (mean values+/−standard deviation) were analyzed as % of control (no compound) and plotted as percentage versus the Log of the compound concentration using GraphPad (Prism). Data were fitted to a sigmoidal model (variable slope).

Caspase 3 = molecular target: T2, Caspase 3 (Homo sapiens, UniProt P42574); experiment: Caspase 3 activity assay (Ac-DEVD-AMC); assay type: biochemical; conditions: 250 nM Ac-DEVD-AMC, 1.6 nM enzyme
T2 sequence (P42574 29-175 limits assumed): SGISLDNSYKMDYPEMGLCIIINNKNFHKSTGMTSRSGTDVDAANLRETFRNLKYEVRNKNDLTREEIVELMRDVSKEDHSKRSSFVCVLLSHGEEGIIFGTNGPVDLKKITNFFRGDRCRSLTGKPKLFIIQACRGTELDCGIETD
T2 sequence (P42574 176-277 limits assumed): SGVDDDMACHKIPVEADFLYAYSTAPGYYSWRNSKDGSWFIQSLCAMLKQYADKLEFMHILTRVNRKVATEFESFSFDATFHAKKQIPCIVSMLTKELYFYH
Experimental: Caspase 3 was diluted in Caspase 3 buffer (100 mM Hepes pH 7.5; 10% sucrose; 0.1% CHAPS). Compounds stocks (100 mM) were stored at −20° C. in DMSO. Compounds were tested at different concentrations: from 200 μM to 91 nM.
as §1, with “caspase 3 specificity assay” for “UCH-L1”, “250” for “300”, “(Ac-DEVD-AMC; Promega).” for “Ub-AMC (Boston Biochem).”, “(Caspase 3)” for “(UCH-L1)”, “1.6” for “2.5”

SMILES	IC50 [1] [µM]	IC50 (UCH-L1) [µM]	IC50 (Caspase 3) [µM]
CN1CCN(CCCNC(=O)c2ccc3c(Cl)c4c(nc3c2)CCCC4)CC1 [Example 15, 9-Chloro-5,6,7,8-tetrahydro-acridine-3-carboxylic acid [3-(4-methyl-piperazin-1-yl)-propyl]-amide]	7.4	> 200	> 200
CCN(CC)CCCNC(=O)c1ccc2c(Cl)c3c(nc2c1)CCCC3 [Example 10, 9-Chloro-5,6,7,8-tetrahydro-acridine-3-carboxylic acid (3-diethylamino-propyl)-amide]	5	> 200	> 200
CCCCN(CC)CCNC(=O)c1ccc2c(Cl)c3c(nc2c1)CCCC3 [Example 4, 9-Chloro-5,6,7,8-tetrahydro-acridine-3-carboxylic acid [2-(butyl-ethyl-amino)-ethyl]-amide]	4	> 200	> 200
CCN(CC)CCNC(=O)c1ccc2c(Cl)c3c(nc2c1)CCCC3 [Example 7, 9-Chloro-5,6,7,8-tetrahydro-acridine-3-carboxylic acid (2-diethylamino-ethyl)-amide]	4.3	> 200	> 200
CN(C)CCNC(=O)c1ccc2c(Cl)c3c(nc2c1)CCCC3 [Example 11, 9-Chloro-5,6,7,8-tetrahydro-acridine-3-carboxylic acid (2-dimethylamino-ethyl)-amide]	7.8	> 200	> 200
CCCN(CCC)CCCNC(=O)c1ccc2c(Cl)c3c(nc2c1)CCCC3 [Example 6, 9-Chloro-5,6,7,8-tetrahydro-acridine-3-carboxylic acid (3-dipropylamino-propyl)-amide]	3.9	> 200	> 200
CCCN1CCN(CCCNC(=O)c2ccc3c(Cl)c4c(nc3c2)CCCC4)CC1 [Example 13, 9-Chloro-5,6,7,8-tetrahydro-acridine-3-carboxylic acid [3-(4-propyl-piperazin-1-yl)-propyl]-amide]	5.9	> 200	> 200
O=C(c1ccc2c(Cl)c3c(nc2c1)CCCC3)N1CCC(N2CCCCC2)CC1 [Example 16, [1,4′]Bipiperidinyl-1′-yl-(9-chloro-5,6,7,8-tetrahydro-acridin-3-yl)-methanone]	13.5	> 200	> 200
CN(CCCNC(=O)c1ccc2c(Cl)c3c(nc2c1)CCCC3)Cc1ccccc1 [Example 14, 9-Chloro-5,6,7,8-tetrahydro-acridine-3-carboxylic acid [3-(benzyl-methyl-amino)-propyl]-amide]	4.1	> 200	> 200
CCN1CCCC1CNC(=O)c1ccc2c(Cl)c3c(nc2c1)CCCC3 (stereo not drawn) [Example 2, 9-Chloro-5,6,7,8-tetrahydro-acridine-3-carboxylic acid (1-ethyl-pyrrolidin-2-ylmethyl)-amide]	5	> 200	> 200
Cc1cccc(CN2CCC(CNC(=O)c3ccc4c(Cl)c5c(nc4c3)CCCC5)CC2)c1 [Example 1, 9-Chloro-5,6,7,8-tetrahydro-acridine-3-carboxylic acid [1-(3-methyl-benzyl)-piperidin-4-ylmethyl]-amide]	2	> 200	> 200
CCCN(CCC)CCNC(=O)c1ccc2c(Cl)c3c(nc2c1)CCCC3 [Example 3, 9-Chloro-5,6,7,8-tetrahydro-acridine-3-carboxylic acid (2-dipropylamino-ethyl)-amide]	3.5	> 200	> 200
O=C(c1ccc2c(Cl)c3c(nc2c1)CCCC3)N1CCCCCC1 [Example 12, Azepan-1-yl-(9-chloro-5,6,7,8-tetrahydro-acridin-3-yl)-methanone]	20	> 200	> 200
CC1CCCC(C)N1CCCNC(=O)c1ccc2c(Cl)c3c(nc2c1)CCCC3 (stereo not drawn) [Example 9, 9-Chloro-5,6,7,8-tetrahydro-acridine-3-carboxylic acid [3-(2,6-dimethyl-piperidin-1-yl)-propyl]-amide]	3.6	> 200	> 200
O=C(NCCCN1CCCC1)c1ccc2c(Cl)c3c(nc2c1)CCCC3 [Example 8, 9-Chloro-5,6,7,8-tetrahydro-acridine-3-carboxylic acid (3-pyrrolidin-1-yl-propyl)-amide]	5.9	> 200	> 200
CCN(CCCNC(=O)c1ccc2c(Cl)c3c(nc2c1)CCCC3)Cc1ccccc1 [Example 5, 9-Chloro-5,6,7,8-tetrahydro-acridine-3-carboxylic acid [3-(benzyl-ethyl-amino)-propyl]-amide]	4	> 200	> 200
